Publication PMC12508159 (NPJ Biofilms and Microbiomes, 2025)

What was measured:
[1] = molecular target: T1, serine-rich adhesin for platelets (SraP), L-lectin module (SLL) (Staphylococcus aureus, UniProt Q8NUJ3); assay: SPR; type: binding
[2] = molecular target: T1, serine-rich adhesin for platelets (SraP), L-lectin module (SLL); assay: SPR; type: binding; remark: listed apart in the source

T1 sequence (Q8NUJ3 245-480): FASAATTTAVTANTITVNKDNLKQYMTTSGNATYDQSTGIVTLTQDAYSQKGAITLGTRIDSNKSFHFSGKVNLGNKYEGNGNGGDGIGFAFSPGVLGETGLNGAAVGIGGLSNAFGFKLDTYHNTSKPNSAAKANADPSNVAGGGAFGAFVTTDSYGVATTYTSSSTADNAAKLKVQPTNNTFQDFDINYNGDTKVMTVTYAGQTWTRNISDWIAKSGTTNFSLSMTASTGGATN

Row | SMILES | SPR (Biacore T200), dose-dependent [1] | Kd [2] [nM]
1 | C[C@@H]1O[C@@H](O[C@H]2[C@H](Oc3cc(O)c4c(c3)O[C@H](c3ccc(O)c(O)c3)CC4=O)O[C@H](CO)[C@@H](O)[C@@H]2O)[C@H](O)[C@H](O)[C@H]1O [neoeriocitrin] | EGCG, neoeriocitrin, and isoviolanthin, were verified to possess strong binding signals in a dose-dependent manner | –
2 | O=C1O[C@H]2[C@@H]3OC(=O)c4cc(O)c(O)c(O)c4-c4c(O)c(O)c5oc(=O)c6c(c(O)c(O)c7oc(=O)c4c5c76)-c4c(cc(O)c(O)c4O)C(=O)OC[C@H]3OC(O)[C@@H]2OC(=O)c2cc(O)c(O)c(O)c2-c2c1cc(O)c(O)c2O (mixture of isomers) [PA, punicalagin] | – | 566
3 | COc1cc(-c2oc3cc(O)cc(O)c3c(=O)c2O[C@@H]2O[C@H](CO[C@@H]3O[C@@H](C)[C@H](O)[C@@H](O)[C@H]3O)[C@@H](O)[C@H](O)[C@H]2O)ccc1O [isorhamnetin-3-O-β-rutinoside] | isorhamnetin-3-O-β-rutinoside, EGCG, neoeriocitrin, and isoviolanthin, were verified to possess strong binding signals in a dose-dependent manner | –
